Test results from ChEMBL document CHEMBL1201862, “PubChem BioAssay data set” (2004).
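Interpolation was linear, between the two tested concentrations surrounding the appropriate level; five concentrations were tested over 48 hours in 96-well plates. The concentration for 50% growth inhibition is given as GI50.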 Activity calls are given as the source filed them. Cut-off read from the data, not from the text of the source: active = GI50 up to about 1.1 µM and inactive = higher.

What was measured:
Assay in all cases: NCI anticancer screen, dose series, 48 h
NCI-H460 = system: NCI-H460
SK-MEL-5 = system: SK-MEL-5
Hs-578T = system: Hs-578T
UACC-62 = system: UACC-62
ACHN = system: ACHN
HCT-116 = system: HCT-116
MOLT-4 = system: MOLT-4
CAKI-1 = system: CAKI-1
UACC-257 = system: UACC-257
OVCAR-3 = system: OVCAR-3
NCI/ADR-RES = system: NCI/ADR-RES
786-0 = system: 786-0
Malme-3M = system: Malme-3M
OVCAR-8 = system: OVCAR-8
NCI-H522 = system: NCI-H522
T47D = system: T47D
NCI-H226 = system: NCI-H226
OVCAR-5 = system: OVCAR-5
MCF7 = system: MCF7
SR = system: SR

Measured: GI50

O=C(C1OC1c1ccc(F)cc1)C12CC3CC(CC(C3)C1)C2 (stereo not given)
inactive: NCI-H460 13.3 µM | SK-MEL-5 16.5 µM | Hs-578T 23.2 µM | UACC-62 15.2 µM | ACHN 30 µM | HCT-116 5.98 µM | MOLT-4 15.8 µM | CAKI-1 25 µM | UACC-257 26.9 µM | OVCAR-3 14.9 µM | NCI/ADR-RES 21.2 µM | 786-0 15.2 µM | Malme-3M 21.3 µM | OVCAR-8 14.4 µM | NCI-H522 17.4 µM | T47D 25.1 µM | NCI-H226 20.2 µM | OVCAR-5 19.6 µM | MCF7 22.2 µM

CC1(C)C2CCC1(CC(=O)O)C(Cl)C2 (stereo not given)
inactive: NCI-H460 > 100 µM | SK-MEL-5 > 100 µM | Hs-578T > 100 µM | UACC-62 > 100 µM | ACHN > 100 µM | HCT-116 > 100 µM | MOLT-4 > 100 µM | CAKI-1 > 100 µM | UACC-257 > 100 µM | OVCAR-3 > 100 µM | NCI/ADR-RES > 100 µM | 786-0 > 100 µM | Malme-3M > 100 µM | OVCAR-8 > 100 µM | NCI-H522 > 100 µM | T47D > 100 µM | NCI-H226 > 100 µM | OVCAR-5 > 100 µM | MCF7 > 100 µM

COC(=O)C(CCCCN)NC(C)=O.Cc1ccc(C(=O)Nc2ccc(S(=O)(=O)O)c3cc(S(=O)(=O)O)cc(S(=O)(=O)O)c23)cc1NC(=O)c1cccc(NC(=O)Nc2cccc(C(=O)Nc3cc(C(=O)Nc4ccc(S(=O)(=O)O)c5cc(S(=O)(=O)O)cc(S(=O)(=O)O)c45)ccc3C)c2)c1
inactive: NCI-H460 > 50 µM | SK-MEL-5 > 50 µM | Hs-578T > 50 µM | UACC-62 > 50 µM | ACHN > 50 µM | HCT-116 > 50 µM | MOLT-4 > 50 µM | CAKI-1 > 50 µM | SR > 50 µM | UACC-257 > 50 µM | OVCAR-3 > 50 µM | NCI/ADR-RES > 50 µM | 786-0 > 50 µM | OVCAR-8 > 50 µM | T47D > 50 µM | NCI-H226 > 50 µM | OVCAR-5 > 50 µM | MCF7 > 50 µM

CN1CN(c2ccccc2)C2(CCN(CCCN(C)c3ccc(F)cc3)CC2)C1=O
inactive: NCI-H460 16.4 µM | SK-MEL-5 16.2 µM | Hs-578T 18.7 µM | UACC-62 18.7 µM | ACHN 22.2 µM | HCT-116 12.8 µM | MOLT-4 5.02 µM | CAKI-1 30.1 µM | UACC-257 17.8 µM | OVCAR-3 16 µM | NCI/ADR-RES 20.6 µM | 786-0 18.6 µM | Malme-3M 19.5 µM | OVCAR-8 18.9 µM | NCI-H522 13.9 µM | T47D 16.7 µM | NCI-H226 19.1 µM | OVCAR-5 17.3 µM | MCF7 15.2 µM
